According to ChEMBL document CHEMBL4513151, “CO-ADD screening of Institut Català d'Investigació Química (Spain) compounds”:
≈ marks a conversion by molar mass, not a printed value.

Key:
HEK293 = assay: cells; format: functional; conditions: Homo sapiens, ATCC CRL1573, HEK293; ASSAY_TEST Inhibition of Cell Viability; detection method Resazurin; Fluorescence (ex560/em590); MEDIA DMEM with 10% FBS; plate type 384well; TC; CORNING #3712; time 18 hr
Staphylococcus aureus = assay: microbe, parasite or virus in culture; conditions: ATCC 43300, 18 h, ASSAY_TEST Inhibition of Bacterial Growth, detection method Absorption (OD600), MEDIA CAMHB, plate type 384well, NBS, CORNING #3640
Description: Antibacterial activity against Staphylococcus aureus MRSA ATCC 43300 (CO-ADD:GP_020); MIC in CAMBH media, using NBS plates, by OD(600)

Escherichia coli = assay: microbe, parasite or virus in culture; conditions: ATCC 25922, 18 h, ASSAY_TEST Inhibition of Bacterial Growth, detection method Absorption (OD600), MEDIA CAMHB, plate type 384well, NBS, CORNING #3640
Description: Antibacterial activity against Escherichia coli ATCC 25922 (CO-ADD:GN_001); MIC in CAMBH media using NBS plates, by OD(600)

Klebsiella pneumoniae = assay: microbe, parasite or virus in culture; conditions: ATCC 700603, 18 h, ASSAY_TEST Inhibition of Bacterial Growth, detection method Absorption (OD600), MEDIA CAMHB, plate type 384well, NBS, CORNING #3640
Description: Antibacterial activity against Klebsiella pneumoniae MDR ATCC 70063 (CO-ADD:GN_003); MIC in CAMBH media using NBS plates, by OD(600)

Pseudomonas aeruginosa = assay: microbe, parasite or virus in culture; conditions: ATCC 27853, 18 h, ASSAY_TEST Inhibition of Bacterial Growth, detection method Absorption (OD600), MEDIA CAMHB, plate type 384well, NBS, CORNING #3640
Description: Antibacterial activity against Pseudomonas aeruginosa ATCC 27853 (CO-ADD:GN_042); MIC in CAMBH media using NBS plates, by OD(600)

Acinetobacter baumannii = assay: microbe, parasite or virus in culture; conditions: ATCC 19606, 18 h, ASSAY_TEST Inhibition of Bacterial Growth, detection method Absorption (OD600), MEDIA CAMHB, plate type 384well, NBS, CORNING #3640
Description: Antibacterial activity against Acinetobacter baumannii ATCC 19606 (CO-ADD:GN_034); MIC in CAMBH media using NBS plates, by OD600

Candida albicans = assay: microbe, parasite or virus in culture; conditions: ATCC 90028, ASSAY_TEST Inhibition of Fungal Growth, detection method Absorption (OD530), plate type 384well, NBS, CORNING #3640
Description: Antifungal activity against Candida albicans ATCC 90028 (CO-ADD:FG_001); MIC in YNB media using NBS plates, by OD630

Description for Cryptococcus neoformans: Antifungal activity against Cryptococcus neoformans H99 ATCC 208821 (CO-ADD:FG_002); MIC in YNB media using NBS plates, by Resazurin OD(600-570)

Work on C[C@]12CC[C@@H](O1)[C@H]1C=C[C@H](OC(=O)c3ccccc3)[C@H]12 yielded a CC50 (HEK293) of over 32 µg/mL, an MIC (Cryptococcus neoformans) of over 32 µg/mL and an MIC (Staphylococcus aureus) of 32 µg/mL (≈ 118 µM). The MIC (Escherichia coli) was over 32 µg/mL, the MIC (Klebsiella pneumoniae) was over 32 µg/mL and the MIC (Pseudomonas aeruginosa) was over 32 µg/mL. It also gave an MIC (Acinetobacter baumannii) of over 32 µg/mL and an MIC (Candida albicans) of over 32 µg/mL.
